Measured values reported in patent US7517998B2, “Non nucleoside reverse transcriptase inhibitors” (priority 2004, dated 2009).
pIC50: −log10 of the molar value.

Target: T1, K103NNY181C mutant reverse transcriptase (Human immunodeficiency virus type 1 group M subtype B, UniProt P04585, K690N/Y768C)
T1 construct: mutations that occur in the reverse transcriptase segment of the pol gene
Experiment: Reverse transcriptase enzymatic assay (PicoGreen), K103N/Y181C mutant RT
Format: biochemical, HIV-1
Conditions: IC50 mut (nM), mutant (K103N/Y181C) reverse transcriptase, enzymatic assay of Example 24
Method in brief: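 PicoGreen fluorescence (ex 485, em 520 nm) quantified product after EDTA stop. Reaction ran 50 min at 37 °C in pH 7.8 Tris/HCl buffer, 1% DMSO, with poly rC/dG15 template-primer (45/4.5 nM), 3.6 μM dGTP, 2.5 nM enzyme; inhibitor 10 μM–0.508 nM final after 15 min room-temperature pre-incubation.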

SMILES | IC50 [nM]
CC(C)(C)c1ccc(-n2nnnc2SCC(=O)Nc2ccc(NC(=O)c3cccc(O)c3)cc2Cl)c(Cl)c1 [Compound 7012] | 128
CC(C)(C)c1ccc(-n2nnnc2SCC(=O)Nc2ccc(NC(=O)Cc3ccccc3O)cc2Cl)c(Cl)c1 [Compound 7042] | 27
CN(C)c1ccc(CC(=O)Nc2ccc(NC(=O)CSc3nnnn3-c3ccc(C(C)(C)C)cc3Cl)c(Cl)c2)cc1 [Compound 7037] | 236
CC(C)(C)c1ccc(-n2nnnc2SCC(=O)Nc2ccc(NC(=O)Cc3ccccn3)cc2Cl)c(Cl)c1 [Compound 7032] | 30
CC(C)(C)c1ccc(-n2nnnc2SCC(=O)Nc2ccc(NC(=O)c3ccccc3)cc2Cl)c(Cl)c1 [Compound 7005] | 106

Same assay, conditions: IC50 mut, K103N/Y181C mutant reverse transcriptase, enzymatic assay of Example 24

SMILES | pIC50
CC(C)(N)C#Cc1ccc(NC(=O)CSc2nnnn2-c2cc(C(C)(C)C)ccc2Cl)c(Cl)c1 [Compound 4201] | 7.28
O=C(CSc1nnnn1-c1ccc(C2CC2)cc1Cl)Nc1ccc(C#CC2(CNCCN3CCCC3)CC2)cc1Cl [Compound 4095] | 7.01
CC(C)(N)C#Cc1ccc(NC(=O)CSc2nnnn2-c2cc(C3CC3)cc(C(F)(F)F)c2Cl)c(Cl)c1F [Compound 4250] | 7.29
CC(C)(C#Cc1ccc(NC(=O)CSc2nnnn2-c2ccc(C3CC3)cc2Cl)c(Cl)c1F)OCCN1CCCC1 [Compound 4175] | 7.17
CC(C)(C#Cc1ccc(NC(=O)CSc2nnnn2-c2ccc(C3CC3)cc2Cl)c(Cl)c1)NC(=O)CNc1ccncc1 [Compound 4188] | 7.62
CC(C)(C#Cc1ccc(NC(=O)CSc2nnnn2-c2ccc(C3CC3)cc2Cl)c(Cl)c1)C(=O)N1CCC(C(=O)O)CC1 [Compound 4149] | 7.78
CC(C)(C#Cc1ccc(NC(=O)CSc2nnnn2-c2ccc(C3CC3)cc2Cl)c(Cl)c1)C(=O)NCCCN1CCCC1=O [Compound 4152] | 7.44
CN1CCN(CC2(C#Cc3ccc(NC(=O)CSc4nnnn4-c4ccc(C5CC5)cc4Cl)c(Cl)c3)CC2)CC1 [Compound 4094] | 7.31

Same assay, conditions: IC50 mut, mutant reverse transcriptase, enzymatic assay of Example 24

SMILES | pIC50
CC(C)(C)c1ccc(-n2nnnc2SCC(=O)Nc2ccc(-c3ccc(OCCN4CCCC4)cc3)cc2Cl)c(Cl)c1 [Compound 2029] | 7.72
CC(C)(C)c1ccc(-n2nnnc2SCC(=O)Nc2ccc(C(=O)NC3CCN(Cc4ccccc4)CC3)cc2Cl)c(Cl)c1 [Compound 6009] | 7.14
CN1CCN(S(=O)(=O)c2ccc(NC(=O)CSc3nnnn3-c3ccc(C4CC4)cc3Cl)c(Cl)c2)CC1 [Compound 3036] | 7.06
O=C(CSc1nnnn1-c1ccc(C2CC2)cc1Cl)Nc1ccc(C(=O)NCc2ccc[n+]([O-])c2)cc1Cl [Compound 6039] | 6.98
COC(=O)C=C(C)c1ccc(NC(=O)CSc2nnnn2-c2ccc(C3CC3)cc2Cl)c(Cl)c1 [Compound 3044] | 7.23
O=C(COc1ccc(NC(=O)CSc2nnnn2-c2ccc(C3CC3)cc2Cl)c(Cl)c1)NCCc1ccncc1 [Compound 5036] | 6.57
Cc1ccc(-n2nnnc2SCC(=O)Nc2ccc(/C=C/C(=O)O)cc2Cl)c(Cl)c1 [Compound 3006] | 6.58
COC(=O)c1ccc(-c2ccc(NC(=O)CSc3nnnn3-c3ccc(C)cc3Cl)c(Cl)c2)cc1 [Compound 2001] | 6.88
Cc1cc(C)c(-n2nnnc2SCC(=O)Nc2ccc(-c3ccc(C(C)(C)C(=O)O)cc3)cc2Cl)c(Cl)c1 [Compound 2025] | 7.38
O=C(CSc1nnnn1-c1cc(C(F)(F)F)ccc1Cl)Nc1ccc(-c2ccc(OCCN3CCCCC3)cc2)cc1Cl [Compound 2049] | 7.27
Cc1cc(C)c(-n2nnnc2SCC(=O)Nc2ccc(-c3ccc(CC(=O)O)cc3)cc2Cl)c(Cl)c1 [Compound 2021] | 7.70
Cc1ccc(-n2nnnc2SCC(=O)Nc2ccc(-c3cccc(CC(=O)O)c3)cc2Cl)c(Cl)c1 [Compound 3004] | 7.03
COC(=O)c1ccc(-c2ccc(NC(=O)CSc3nnnn3-c3ccc(C(C)(C)C)cc3Cl)c(Cl)c2)cc1 [Compound 2008] | 7.41
O=C(COc1ccc(NC(=O)CSc2nnnn2-c2ccc(C3CC3)cc2Cl)c(Cl)c1)NCCc1ccc[n+]([O-])c1 [Compound 5039] | 6.32
